Measured values from paper PMC10460844, “Real‐Time Monitoring of Multitarget Antimicrobial Mechanisms of Peptoids Using Label‐Free Imaging with Optical Diffraction Tomography” (Advanced Science, 2023).
Converted amounts (≈) assume the structure as drawn. Counter-ions that a name gives are not always drawn. Like-named read-outs stand apart in the source and are kept apart here. Square brackets hold non-standard residues; d marks the D form. Peptide text beside a SMILES is read from it. Gly(N(CH2)2(3-indolyl)) = O=C(O)CNCCc1c[nH]c2ccccc12; Nspe = C[C@H](NCC(=O)O)c1ccccc1; Nphe = O=C(O)CNCc1ccccc1; Nlys = NCCCCNCC(=O)O

What was measured:
S. aureus ATCC 25923 = assay type: cell-based, Staphylococcus aureus
Description: (§1) The antibacterial activity of the peptoids was evaluated against gram‐positive (Staphylococcus aureus, ATCC 25 923) and gram‐negative (Escherichia coli, ATCC 25 922) bacteria. […] The MIC of each peptoid was determined using a broth dilution assay. For each assay, the primary culture of either S. aureus or E. coli was grown overnight in cation‐adjusted Mueller Hinton broth 2 (MHB2) media at 37 °C with shaking. A secondary culture was prepared the next day, grown for 3–4 h, and then diluted in MHB2 media with a final concentration of 0.001% acetic acid and 0.02% bovine serum albumin to obtain a calculated optical density (OD) of 0.001. This corresponded to ≈2–5 × 10^5 colony‐forming units (CFU mL^−1) of bacteria. Using 96‐well polypropylene plates (Eppendorf, Hamburg, Germany), 100 µL of 2–5 × 10^5 CFU mL^−1 bacteria were added in triplicate for each peptoid. Each peptoid was assayed at six different concentrations in two‐fold serial dilutions. The maximum peptoid concentration was 25 µM. […] The MIC value determination was performed in triplicate. The MIC was defined as the lowest peptoid concentration that prevented turbidity during visual inspection.

rat erythrocytes = test: Hemolysis assay; assay type: cell-based
How it was run: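 Washed Sprague-Dawley rat erythrocytes (10% suspension in PBS pH 7.4) mixed with peptoids (0–100 µM), 60 min at 37 °C; supernatant A540 expressed as % of 1% Triton X-100 lysis. HC10/HC50 are concentrations giving 10%/50% hemolysis; Hmax is hemolysis at 100 µM.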

[1] = Analytical reversed-phase HPLC elution (hydrophobicity); assay type: physicochemical; conditions: Table S1; analytical RP-HPLC, SunFire C18, water/ACN + 0.1% TFA, 5 to 100% B linear over 30 min, 1 mL/min, UV 220 nm; approximate comparison of hydrophobicity
How it was run: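 Analytical reversed-phase HPLC on a C18 column (4.6 × 250 mm, 5 μm) at 1 mL/min, water/acetonitrile each with 0.1% TFA. Held at 5% B for 2 min, then linear to 100% B over 30 min and held 5 min, with UV detection at 220 nm; retention time (tR) serves as hydrophobicity measure.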

E. coli ATCC 25922 = assay type: cell-based, Escherichia coli
Description: as §1

[2] = Table S2, broth dilution, MHB2, 37 °C 24 h, max 25 µM, mean of triplicate

| MIC S. aureus ATCC25923 (S. aureus ATCC 25923; [2]) [µM] | HPLC elution [1] [% MeCN] | MIC E. coli ATCC25922 (E. coli ATCC 25922; [2]) [µM] | Structure (SMILES) | H max (100 µM) (rat erythrocytes) [%] | Hmax (100 µM) (rat erythrocytes) [%] | HC10 (rat erythrocytes; pH 7.4) [µM] | HC50 (rat erythrocytes; pH 7.4) [µM] | MIC S. aureus ATCC25923 (S. aureus ATCC 25923; ATCC 25923) [µM] | HC10 (rat erythrocytes; red cells of rat) [µM] | HC50 (rat erythrocytes; red cells of rat) [µM] | MIC E. coli ATCC25922 (E. coli ATCC 25922; ATCC 25922) [µM] |
| --- | --- | --- | --- | --- | --- | --- | --- | --- | --- | --- | --- |
| 25 (≈ 44 µg/mL) | 47.3 | > 25 | C[C@@H](c1ccccc1)N(CC(=O)N(CCCCN)CC(=O)N(CC(=O)N(CC(N)=O)Cc1ccccc1)Cc1ccccc1)C(=O)CN(CCCCN)C(=O)CN(CCCCN)C(=O)CN(C(=O)CN(C(=O)CN(CCCCN)C(=O)CN(C(=O)CN(C(=O)CNCCCCN)[C@@H](C)c1ccccc1)[C@@H](C)c1ccccc1)[C@@H](C)c1ccccc1)[C@@H](C)c1ccccc1 [peptoid 45] (H-[Nlys][Nspe][Nspe][Nlys][Nspe][Nspe][Nlys][Nlys][Nspe][Nlys][Nphe][Nphe]-NH2) | 4.5 ± 0.2 | 4.5±0.2 | > 100 | > 100 |  |  |  |  |
|  |  |  | C[C@@H](c1ccccc1)N(CC(N)=O)C(=O)CN(CCCCN)C(=O)CN(CCCCN)C(=O)CN(C(=O)CN(C(=O)CN(CCCCN)C(=O)CN(C(=O)CN(C(=O)CN(CCCCN)C(=O)CN(CCc1c[nH]c2ccccc12)C(=O)CN(CCc1c[nH]c2ccccc12)C(=O)CNCCCCN)[C@@H](C)c1ccccc1)[C@@H](C)c1ccccc1)[C@@H](C)c1ccccc1)[C@@H](C)c1ccccc1 [32-HCl] |  | 8.7±0.6 |  |  | 6.3 | > 100 | > 100 | 6.3 |
|  |  |  | C[C@@H](c1ccccc1)N(CC(=O)N(CCCCN)CC(=O)N(CC(=O)N(CC(=O)N(CCCCN)CC(=O)N(CC(=O)N(CC(=O)N(CCCCN)CC(N)=O)[C@@H](C)c1ccccc1)[C@@H](C)c1ccccc1)[C@@H](C)c1ccccc1)[C@@H](C)c1ccccc1)C(=O)CN(C(=O)CN(CCCCN)C(=O)CN(CCc1c[nH]c2ccccc12)C(=O)CNCCc1c[nH]c2ccccc12)[C@@H](C)c1ccccc1 [37-HCl] (H-[Gly(N(CH2)2(3-indolyl))][Gly(N(CH2)2(3-indolyl))][Nlys][Nspe][Nspe][Nlys][Nspe][Nspe][Nlys][Nspe][Nspe][Nlys]-NH2) |  | 86.6±5.7 |  |  | 3.1 | 14.4 | 56.5 | 6.3 |
|  |  |  | C[C@@H](c1ccccc1)N(CC(N)=O)C(=O)CN(C(=O)CN(CCCCN)C(=O)CN(C(=O)CN(CCc1c[nH]c2ccccc12)C(=O)CN(CCCCN)C(=O)CN(CCc1c[nH]c2ccccc12)C(=O)CN(C(=O)CN(CCCCN)C(=O)CN(C(=O)CN(C(=O)CNCCCCN)[C@@H](C)c1ccccc1)[C@@H](C)c1ccccc1)[C@@H](C)c1ccccc1)[C@@H](C)c1ccccc1)[C@@H](C)c1ccccc1 [15-AcOH] |  | 34.1±1.1 |  |  | 3.1 (≈ 5.88 µg/mL) | 39.2 | > 100 | 6.3 (≈ 12 µg/mL) |
|  |  |  | C[C@@H](c1ccccc1)N(CC(N)=O)C(=O)CN(C(=O)CN(CCCCN)C(=O)CN(C(=O)CN(C(=O)CN(CCCCN)C(=O)CN(C(=O)CN(C(=O)CN(CCCCN)C(=O)CN(CCc1c[nH]c2ccccc12)C(=O)CN(CCc1c[nH]c2ccccc12)C(=O)CNCCCCN)[C@@H](C)c1ccccc1)[C@@H](C)c1ccccc1)[C@@H](C)c1ccccc1)[C@@H](C)c1ccccc1)[C@@H](C)c1ccccc1 [14-AcOH] |  | 100.7±17.2 |  |  | 1.6 (≈ 3.04 µg/mL) | 14.9 | 51.8 | 3.1 (≈ 5.88 µg/mL) |
|  |  |  | C[C@@H](c1ccccc1)N(CC(=O)N(CCCCN)CC(=O)N(CCc1c[nH]c2ccccc12)CC(=O)N(CCc1c[nH]c2ccccc12)CC(N)=O)C(=O)CN(CCCCN)C(=O)CN(CCCCN)C(=O)CN(C(=O)CN(C(=O)CN(CCCCN)C(=O)CN(C(=O)CN(C(=O)CNCCCCN)[C@@H](C)c1ccccc1)[C@@H](C)c1ccccc1)[C@@H](C)c1ccccc1)[C@@H](C)c1ccccc1 [29-HCl] (H-[Nlys][Nspe][Nspe][Nlys][Nspe][Nspe][Nlys][Nlys][Nspe][Nlys][Gly(N(CH2)2(3-indolyl))][Gly(N(CH2)2(3-indolyl))]-NH2) |  | 4.3±0.3 |  |  | 12.5 | > 100 | > 100 | 12.5 |
|  |  |  | C[C@@H](c1ccccc1)N(CC(=O)N(CCCCN)CC(=O)N(CCc1c[nH]c2ccccc12)CC(=O)N(CCc1c[nH]c2ccccc12)CC(N)=O)C(=O)CN(CCCCN)C(=O)CN(CCCCN)C(=O)CN(C(=O)CN(C(=O)CN(CCCCN)C(=O)CN(C(=O)CN(C(=O)CNCCCCN)[C@@H](C)c1ccccc1)[C@@H](C)c1ccccc1)[C@@H](C)c1ccccc1)[C@@H](C)c1ccccc1 [29-AcOH] (H-[Nlys][Nspe][Nspe][Nlys][Nspe][Nspe][Nlys][Nlys][Nspe][Nlys][Gly(N(CH2)2(3-indolyl))][Gly(N(CH2)2(3-indolyl))]-NH2) |  | 5.2±0.2 |  |  | 12.5 (≈ 23.3 µg/mL) | > 100 | > 100 | 6.3 (≈ 11.7 µg/mL) |
|  |  |  | C[C@@H](c1ccccc1)N(CC(=O)N(CCCCN)CC(=O)N(CC(=O)N(CC(=O)N(CCCCN)CC(=O)N(CC(=O)N(CC(=O)N(CCCCN)CC(=O)N(CCc1c[nH]c2ccccc12)CC(=O)N(CCc1c[nH]c2ccccc12)CC(N)=O)[C@@H](C)c1ccccc1)[C@@H](C)c1ccccc1)[C@@H](C)c1ccccc1)[C@@H](C)c1ccccc1)C(=O)CN(C(=O)CNCCCCN)[C@@H](C)c1ccccc1 [11-HCl] (H-[Nlys][Nspe][Nspe][Nlys][Nspe][Nspe][Nlys][Nspe][Nspe][Nlys][Gly(N(CH2)2(3-indolyl))][Gly(N(CH2)2(3-indolyl))]-NH2) |  | 113.9±1.7 |  |  | 3.1 | 10.1 | 21.5 | 3.1 |
|  |  |  | C[C@@H](c1ccccc1)N(CC(N)=O)C(=O)CN(CCCCN)C(=O)CN(CCCCN)C(=O)CN(C(=O)CN(C(=O)CN(CCCCN)C(=O)CN(C(=O)CN(C(=O)CN(CCCCN)C(=O)CN(CCc1c[nH]c2ccccc12)C(=O)CN(CCc1c[nH]c2ccccc12)C(=O)CNCCCCN)[C@@H](C)c1ccccc1)[C@@H](C)c1ccccc1)[C@@H](C)c1ccccc1)[C@@H](C)c1ccccc1 [32-AcOH] |  | 13.8±1.1 |  |  | 6.3 (≈ 11.7 µg/mL) | 83.0 | > 100 | 6.3 (≈ 11.7 µg/mL) |
